Results on nine compounds are retold here after ChEMBL document CHEMBL1275470, “Susceptibility testing and molecular classification of Paecilomyces spp” (2008).

Assay [1] relates to Paecilomyces variotii. The experiment in a line: Antimicrobial activity against Paecilomyces variotii by microdilution method. It is filed as functional. For orientation: Dilution methods test growth across graded concentrations, often in twofold steps.
Assay [2] has as its system Paecilomyces lilacinus. Description: Antimicrobial activity against Paecilomyces lilacinus by microdilution method. The assay is classed as functional. The settings on record: Purpureocillium lilacinum.

The structures appear in SMILES notation. Converted amounts (≈) assume the structure as drawn. Starred links: 1 amine or outer side, 2 acyl side, 3 side chain; linkers in the order of their positions; H or OH if unused. Positions of bridges follow the written chain, without caps; N, C: chain ends. Non-standard residues stand in square brackets, D forms with d. Residues, ends and D or L forms follow the SMILES beside them. *: point of attachment. hTyr(3S-OH,4S-OH,3'-OSO3H) = N[C@H](C(=O)O)[C@H](O)[C@@H](O)c1ccc(O)c(OS(=O)(=O)O)c1; pTerphenylCO(4''-OnC5H11) = CCCCCOc1ccc(-c2ccc(-c3ccc(C(=O)*)cc3)cc2)cc1; Orn(4R-OH,5R-OH) = O=C([C@H](C[C@@H](O)[C@@H](O)N[*:3])N[*:1])[*:2]; hTyr(3S-OH,4S-OH) = N[C@H](C(=O)O)[C@H](O)[C@@H](O)c1ccc(O)cc1; Pro(3S-OH,4S-Me) = C[C@H]1CN[C@H](C(=O)O)[C@H]1O; X1 = CCCCCOc1ccc(-c2cc(-c3ccc(C(=O)*)cc3)no2)cc1; Gln(3R-OH) = NC(=O)C[C@@H](O)[C@H](N)C(=O)O; Hyp = O=C(O)[C@@H]1C[C@@H](O)CN1

For `C[C@@H]1[C@H](O)[C@@H](C)/C=C/C=C/C=C/C=C/C=C/C=C/C=C/[C@H](O[C@@H]2O[C@H](C)[C@@H](O)[C@H](N)[C@@H]2O)C[C@@H]2O[C@](O)(C[C@@H](O)C[C@@H](O)[C@H](O)CC[C@@H](O)C[C@@H](O)CC(=O)O[C@H]1C)C[C@H](O)[C@H]2C(=O)O` [AMPHOTERICIN B], the minimal inhibitory concentration (MIC) (usually the lowest concentration found to suppress growth) in assay [1] is 0.04 µg/mL (≈ 0.0433 µM); in assay [2] it was 29.6 µg/mL (≈ 32 µM).
In the case of `CCCCCOc1ccc(-c2ccc(-c3ccc(C(=O)N[C@H]4C[C@@H](O)[C@@H](O)NC(=O)[C@@H]5[C@@H](O)[C@@H](C)CN5C(=O)[C@H]([C@@H](C)O)NC(=O)[C@H]([C@H](O)[C@@H](O)c5ccc(O)cc5)NC(=O)[C@@H]5C[C@@H](O)CN5C(=O)[C@H]([C@@H](C)O)NC4=O)cc3)cc2)cc1` [ANIDULAFUNGIN] ({pTerphenylCO(4''-OnC5H11)}-[Orn(4R-OH,5R-OH)]T[Hyp][hTyr(3S-OH,4S-OH)]T[Pro(3S-OH,4S-Me)]; lactam 1-C), the results for the minimum inhibitory concentration (MIC) in assay [1] and in assay [2] were 0.016 µg/mL (≈ 0.014 µM) and 27.1 µg/mL (≈ 23.8 µM), respectively.
`CC[C@H](C)C[C@H](C)CCCCCCCCC(=O)N[C@H]1C[C@@H](O)[C@@H](NCCN)NC(=O)[C@@H]2[C@@H](O)CCN2C(=O)[C@H]([C@H](O)CCN)NC(=O)[C@H]([C@H](O)[C@@H](O)c2ccc(O)cc2)NC(=O)[C@@H]2C[C@@H](O)CN2C(=O)[C@H]([C@@H](C)O)NC1=O` [CASPOFUNGIN]: the MIC in assay [1] was determined as 0.44 µg/mL (≈ 0.402 µM); in assay [2], 27.9 µg/mL (≈ 25.5 µM).
For `CCC(C)n1ncn(-c2ccc(N3CCN(c4ccc(OCC5COC(Cn6cncn6)(c6ccc(Cl)cc6Cl)O5)cc4)CC3)cc2)c1=O` (stereo not drawn) [ITRACONAZOLE], the values for the MIC in assay [1] and in assay [2] were 0.06 µg/mL (≈ 0.085 µM) and 13.4 µg/mL (≈ 19 µM), respectively.
In the case of `CCCCCOc1ccc(-c2cc(-c3ccc(C(=O)N[C@H]4C[C@@H](O)[C@@H](O)NC(=O)[C@@H]5[C@@H](O)[C@@H](C)CN5C(=O)[C@H]([C@H](O)CC(N)=O)NC(=O)[C@H]([C@H](O)[C@@H](O)c5ccc(O)c(OS(=O)(=O)O)c5)NC(=O)[C@@H]5C[C@@H](O)CN5C(=O)[C@H]([C@@H](C)O)NC4=O)cc3)no2)cc1` [MICAFUNGIN] (X1-[Orn(4R-OH,5R-OH)]T[Hyp][hTyr(3S-OH,4S-OH,3'-OSO3H)][Gln(3R-OH)][Pro(3S-OH,4S-Me)]; lactam 1-C), the minimal inhibitory concentration (MIC) in assay [1] is 0.018 µg/mL (≈ 0.0142 µM); in assay [2], 25.6 µg/mL (≈ 20.2 µM).
The like results for `CC[C@@H]([C@H](C)O)n1ncn(-c2ccc(N3CCN(c4ccc(OC[C@@H]5CO[C@@](Cn6cncn6)(c6ccc(F)cc6F)C5)cc4)CC3)cc2)c1=O` [POSACONAZOLE] were, in that order, 0.04 µg/mL (≈ 0.0571 µM) and 0.28 µg/mL (≈ 0.4 µM).
As to `C[C@@H](c1nc(-c2ccc(C#N)cc2)cs1)[C@](O)(Cn1cncn1)c1ccc(F)cc1F` [RAVUCONAZOLE], the MIC in assay [1] was 4.89 µg/mL (≈ 11.2 µM); in assay [2], 0.73 µg/mL (≈ 1.67 µM).
In the same order, the values of `CN(C/C=C/C#CC(C)(C)C)Cc1cccc2ccccc12` [TERBINAFINE] are 1.53 µg/mL (≈ 5.25 µM) and 0.51 µg/mL (≈ 1.75 µM).
On to `C[C@@H](c1ncncc1F)[C@](O)(Cn1cncn1)c1ccc(F)cc1F` [VORICONAZOLE], for which the minimum inhibitory concentration (MIC) in assay [1] was determined as 4.18 µg/mL (≈ 12 µM); in assay [2] it was 0.45 µg/mL (≈ 1.29 µM).
